We go through seven compounds from article PMC6471062, “Suppression of the Ubiquitin Pathway by Small Molecule Binding to Ubiquitin Enhances Doxorubicin Sensitivity of the Cancer Cells” (Molecules, 2019).

For data set [1], the system named is H1299 cells. The experiment in a line: Cytotoxicity, cell viability assay. Format: cell-based. As to conditions: determined by cytotoxicity assays. As to the method: (§1) Cell viability assays were performed as described previously. For the caspase assays, the media were removed, and cells were lysed in 200 µL lysis buffer containing 50 µL Caspase Glo 3/7 solution and incubated for 15 min. Results were observed by measuring the luminescence signal using KOMM-Nr (Berthold Technologies, Bad Wildbad, Germany) and normalized with the total protein concentration measured by the Bradford assay. Data were analyzed using GraphPad Prism version 6.0 for Windows with two tail t-test for statistical data analysis […]
Figure S7. Cytotoxicity of CR to cancer cells. H1299 cells were cultured in 96 -well plates. CR was added to final concentrations of 0.0 – 50.0 µM, and the cells were incubated for 24 h followed by cell viability assay. All error bars represent the standard deviation from at least 4 independent experiments. Statistical comparisons between groups were determined by Student’s t -test. If p -values are less than 0.05, they are statistically significant . NS, not […]
(1 picture or pasted object on this page, not shown here)

In data set [2] the test system is HCT116 cells. The data set can be described thus: Dox-induced cell death, colorimetric cell viability, HCT116. Format: cell-based. As to conditions: for Effect on Dox-induced cell death, HCT116: 10 µM CR or 5 µM NSC697923 12 h, then Dox 1.25–5.0 μM 12 h. As to the method: (§2) Figure 7 CR enhances Dox sensitivity of cancer cells. (a,b) Enhancement of Dox-induced apoptosis of cancer cells by CR treatment. Dox–induced apoptosis of H1299 (a) and HCT116 (b) was quantified by colorimetric cell viability after treating 10 µM CR for 12 h followed by 12h treatment of Dox (0.0–5.0 µM). […] Caspase activity was quantified by luminogenic caspase activity assay. […] All error bars represent the standard deviation from at least four independent experiments. Statistical significance was calculated by the Student’s t-test (** p < 0.01, *** p < 0.001).
(§3) Cell viability assays were performed as described previously. For the caspase assays, the media were removed, and cells were lysed in 200 µL lysis buffer containing 50 µL Caspase Glo 3/7 solution and incubated for 15 min. Results were observed by measuring the luminescence signal using KOMM-Nr (Berthold Technologies, Bad Wildbad, Germany) and normalized with the total protein concentration measured by the Bradford assay. […]
(§4) Figure S8. NSC697923 enhances Dox sensitivity of cancer cells. (a, b) Effect of NSC697923 to cancer cells’ viability in Dox treatment . Dox–induced cell death of H1299 ( a) and HCT116 ( b) was quantified by colorimetric cell viability assay after treating 5 µM NSC697923 for 12 h followed by 12h treatment of Dox (0.0 […]
(§5) NSC697923. Caspase activity was quantified by luminogenic caspase activity assay. All error bars represent the standard deviation from at least 4 independent experiments. *, P<0.05; **, P<0.01; ***, P<0.001.

Data set [3] relates to H1299 cells. The experiment in a line: Dox-induced cell death, colorimetric cell viability, H1299. The data set is classed as cell-based. The procedure:
as §2, §1, §4, §5

Data set [4] deals with HCT116 cells. The data set can be described thus: Luminogenic caspase activity assay (Caspase Glo 3/7), HCT116. Format: cell-based. As to conditions: 10 µM CR or 5 µM NSC697923 with Dox. The procedure:
as §2, §3, §4
(§6) NSC697923. Caspase activity was quantified by luminogenic caspase activity assay. […]

Data set [5] concerns H1299 cells. The data set can be described thus: Luminogenic caspase activity assay (Caspase Glo 3/7), H1299. The data set is classed as cell-based. As to conditions: 10 µM CR or 5 µM NSC697923 with Dox. The procedure: as §2, §3, §4, §6
Data set [6] has as its system H1299 cells. The data set can be described thus: Dox-induced K48- and K63-polyubiquitination in cells (immunofluorescence staining, Western blot). Format: cell-based. As to conditions: H1299, non-pretreated, 5 µM Dox. As to the method: Figure 6 CR inhibits Dox-induced ubiquitination in the cells. (a) Immunofluorescence staining of H1299 cells treated with or without 5 (+) and 10 (++) μM CR for 12 h followed by addition of Dox to a final concentration of 5 μM, with incubation for 12 h. The cells were subjected to immunofluorescence staining using the antibodies against K48 (αK48) and K63 polyubiquitins (αK63). (b) K48 or K63 polyubiquitin level in Figure 6a was quantified by fluorescence signal. At least seven random regions acquired in confocal images were sampled and normalized against DAPI intensity for quantification. (c) Immunoblots of samples in Figure 6a using the indicated antibodies. […] Statistical significance was calculated by the Student’s t-test (* p < 0.05, ** p < 0.01, *** p < 0.001).
Cells were seeded in the SPL 4 wells cell culture chamber slide 24 h before experiment. […] Subsequently, cells were incubated with primary antibody at 1/200 dilution in blocking buffer overnight and then washed with blocking buffer five times (5 min each) before incubation with fluorescence-conjugated secondary antibody at 1/200 dilution in blocking buffer for 1 h. […] Images acquired in confocal imaging were subjected to fluorescence intensity analysis using ImageJ [55]. Fluorescence signal representing a particular ubiquitin chain level was analyzed and normalized with the intensity of DAPI. […]

Another data set addresses ubiquitin (Homo sapiens, UniProt P0CG47). The data set can be described thus: Intrinsic fluorescence quenching assay of ubiquitin. To be noted: 50 µM ubiquitin, 0–500 µM compound, ex 274 nm / em 305 nm; read-out: Kd, dissociation constant upon binding to ubiquitin. The procedure: Intrinsic fluorescence quenching assays were performed as described previously. Briefly, intrinsic fluorescence quenching of ubiquitin by indicated compounds was observed by measuring the excitation and emission wavelength at 274 nm and 305 nm respectively of the mixture of 50 µM purified ubiquitin and 0–500 µM compound. Data were fitted to nonlinear regression curves with the equation described previously. F = −∆ε·[PC] + Fo(3) b = (Po + Co + Kd)(4) c = Po·Co(5) [PC] = [b − (b^2 − 4·c)^1/2]/2(6) where Fo and F are the normalized fluorescence intensity of the mixture of ubiquitin without the compound and with different concentrations of the compound, respectively. ∆ε is a difference in the extinction coefficient of the compound between their free and complex forms. [PC] is the concentration of protein/compound complex. Po and Co are the added concentration of ubiquitin and the compound, respectively in each experiment. Kd is the dissociation constant.

The next data set has as its target UCHL1 (Homo sapiens). The data set can be described thus: Deubiquitination assay, cleavage of GST-Ubiquitin-HA by UCHL1 (SDS-PAGE band intensity). Format: biochemical. As to the method:
(§7) For in vitro ubiquitination assays, 500 µM of ubiquitin was used for each ubiquitination reaction as described previously, in the absence or presence of 50–500 µM of CR. […] The generation of GST-ubiquitin from GST-Ubiquitin-HA as the mobility shifts were analyzed on 12.5% SDS-PAGE visualized by Coomassie blue staining. Band intensities were quantified by ImageJ [55] and used to generate the IC50 curves (log inhibitor vs. normalized response with variable slope) by GraphPad Prism version 6.0 for Windows (GraphPad Software, San Diego, CA, USA, www.graphpad.com).

A further data set has as its target USP5 (Homo sapiens). The experiment in a line: Deubiquitination assay, cleavage of GST-Ubiquitin-HA by USP5 (SDS-PAGE band intensity). Format: biochemical. As to the method:
as §7

Details of data set [7]: method as in PMID 27613091. As to conditions: previous study ref 35; cited from earlier work.
Setting [8] is: 8 µM UCHL1, 5 µM GST-Ubiquitin-HA, 0–45 µM compound, read-out: IC50 UCHL1 (DUB activity).
The mark [9] stands for this setting: 0.6 µM USP5, 5 µM GST-Ubiquitin-HA, 0–45 µM compound, read-out: IC50 USP5 (DUB activity).

SMILES strings stand for the structures. Read-outs that look alike come from different tables or passages of the source. Some results are limits rather than exact numbers.

UCHL1 (Homo sapiens), sequence (P09936 whole entry, other chains not shown): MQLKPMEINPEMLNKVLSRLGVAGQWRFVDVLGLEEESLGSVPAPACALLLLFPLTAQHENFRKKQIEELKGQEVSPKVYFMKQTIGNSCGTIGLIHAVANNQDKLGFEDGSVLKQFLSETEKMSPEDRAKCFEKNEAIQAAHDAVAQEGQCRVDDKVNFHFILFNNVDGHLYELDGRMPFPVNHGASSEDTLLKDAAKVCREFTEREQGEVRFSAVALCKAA
USP5 (Homo sapiens), sequence (P45974 2-858, other chains not shown): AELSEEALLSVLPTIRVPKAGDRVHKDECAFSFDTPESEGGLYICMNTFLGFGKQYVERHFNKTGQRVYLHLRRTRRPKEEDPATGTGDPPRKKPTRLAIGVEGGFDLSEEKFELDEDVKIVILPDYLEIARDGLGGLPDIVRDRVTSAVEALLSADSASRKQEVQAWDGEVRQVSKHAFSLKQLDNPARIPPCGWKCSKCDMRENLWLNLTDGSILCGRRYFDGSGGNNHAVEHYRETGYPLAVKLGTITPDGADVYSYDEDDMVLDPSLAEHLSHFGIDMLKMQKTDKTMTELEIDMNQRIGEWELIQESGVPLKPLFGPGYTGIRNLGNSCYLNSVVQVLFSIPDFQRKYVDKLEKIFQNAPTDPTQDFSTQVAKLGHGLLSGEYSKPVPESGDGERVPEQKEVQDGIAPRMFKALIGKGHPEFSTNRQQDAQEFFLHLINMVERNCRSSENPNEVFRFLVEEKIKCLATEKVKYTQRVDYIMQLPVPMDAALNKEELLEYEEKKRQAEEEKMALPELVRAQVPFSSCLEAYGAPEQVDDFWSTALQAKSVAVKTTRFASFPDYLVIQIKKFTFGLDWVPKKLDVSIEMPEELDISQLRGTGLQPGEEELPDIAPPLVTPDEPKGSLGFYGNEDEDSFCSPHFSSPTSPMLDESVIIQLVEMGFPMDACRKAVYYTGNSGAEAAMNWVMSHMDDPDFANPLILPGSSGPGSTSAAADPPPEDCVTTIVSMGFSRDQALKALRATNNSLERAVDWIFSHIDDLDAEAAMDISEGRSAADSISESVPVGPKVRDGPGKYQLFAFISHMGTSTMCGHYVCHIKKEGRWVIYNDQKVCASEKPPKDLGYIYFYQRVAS

As for `Cc1ccc(S(=O)(=O)c2ccc([N+](=O)[O-])o2)cc1` [NSC697923], in the data set on H1299 cells [1], the None-toxicity concentration turned out to be 5 µM. Moreover, the results for the “Effect on Dox-induced cell death, HCT116” value in the data set with HCT116 cells [2] and in the data set with HCT116 cells [2] (listed as NSC967923) were “only a synergistic effect at low concentrations of Dox” and “significantly enhanced Dox-induced cell death”, respectively. Moreover, in the data set on H1299 cells [3] (10 µM CR or 5 µM NSC697923 12 h, then Dox 1.25–5.0 μM 12 h), the “Effect on Dox-induced cell death, H1299” value is reported as “significantly enhanced Dox-induced cell death”. The “Effect on caspase activity of Dox-treated HCT116 cells” value in the data set on HCT116 cells [4] is on record as “Enhanced caspase activity”. Besides, in the data set on H1299 cells [5], the “Effect on caspase activity of Dox-treated H1299 cells” value is recorded as “Enhanced caspase activity”.
In the case of `COc1cccc2c1C(=O)c1c(O)c3c(c(O)c1C2=O)C[C@@](O)(C(=O)CO)C[C@@H]3O[C@H]1C[C@H](N)[C@H](O)[C@H](C)O1` [Dox, doxorubicin], the “Dox-induced cell death, Dox alone, HCT116” value in the data set with HCT116 cells [2] (Dox 1.25 to 5.0 μM, 12 h) is given as “proportional to the Dox concentration”. In addition, in the data set on H1299 cells [3] (Dox 1.25 to 5.0 μM, 12 h), the “Dox-induced cell death, Dox alone, H1299” value was “proportional to the Dox concentration”. Moreover, the “K48- and K63-polyubiquitination upon Dox alone” value in the data set on H1299 cells [6] is “enhanced K48- and K63-polyubiquitination”.
Turning to `Cc1cc(-c2ccc(/N=N/c3ccc4c(S(=O)(=O)O)cc(S(=O)(=O)O)c(N)c4c3O)c(C)c2)ccc1/N=N/c1ccc2c(S(=O)(=O)O)cc(S(=O)(=O)O)c(N)c2c1O` [EB, Evans blue], the equilibrium dissociation constant (Kd) on ubiquitin was 13 ± 0.689 µM. Besides, the 50% inhibitory concentration (IC50) at UCHL1 (Homo sapiens) (setting [8]) worked out at 18.1 ± 2.09 µM; on USP5 (Homo sapiens) (setting [9]) it was 9.33 ± 1.58 µM.
Taken in the same sequence, the figures for `Nc1ccc2c(O)c(N=Nc3ccc(N=Nc4ccc(N=Nc5cc(S(=O)(=O)O)c6cccc(S(=O)(=O)O)c6c5)c5ccccc45)c4ccc(S(=O)(=O)O)cc34)c(S(=O)(=O)O)cc2c1` [DB71, Direct blue 71] were 20 ± 0.835 µM, 33.7 ± 4.05 µM and 13.7 ± 2.74 µM.
Consider `COc1cc(-c2ccc(/N=N/c3ccc4c(S(=O)(=O)O)cc(S(=O)(=O)O)c(N)c4c3O)c(OC)c2)ccc1/N=N/c1ccc2c(S(=O)(=O)O)cc(S(=O)(=O)O)c(N)c2c1O` [CSB6B, Chicago Sky Blue 6B], for which, at ubiquitin, the equilibrium dissociation constant (Kd) was determined as 12 ± 0.678 µM. Besides, the half-maximal inhibitory concentration (IC50) against UCHL1 (Homo sapiens) worked out at 11.2 ± 1.37 µM; against USP5 (Homo sapiens), 6.52 ± 0.786 µM. The Cell membrane penetration result in [7] was “not able to penetrate the cell membrane”.
With `COc1cc(-c2ccc(/N=N/c3c(S(=O)(=O)O)cc4cc(S(=O)(=O)O)cc(N)c4c3O)c(OC)c2)ccc1/N=N/c1c(S(=O)(=O)O)cc2cc(S(=O)(=O)O)cc(N)c2c1O` [DB15, Direct blue 15], the dissociation constant Kd on ubiquitin amounted to 60.3 ± 2.3 µM. Also, the IC50 on USP5 (Homo sapiens) (setting [9]) turned out to be 32.5 ± 5 µM.
Taken in the same sequence, the figures for `Cc1cc(-c2ccc(/N=N/c3c(S(=O)(=O)O)cc4cc(S(=O)(=O)O)cc(N)c4c3O)c(C)c2)ccc1/N=N/c1c(S(=O)(=O)O)cc2cc(S(=O)(=O)O)cc(N)c2c1O` [TB, Trypan blue] were 78.1 ± 4.02 µM and over 45 µM.
